# Data published in PMC9643456, “Matching amino acids membrane preference profile to improve activity of antimicrobial peptides” (Communications Biology, 2022).
# Square brackets hold non-standard residues; d marks the D form. Peptide text beside a SMILES is read from it.
# Tested on: MDR A. baumannii, MDR S. aureus or MDR K. pneumonia
# Assay: In vivo activity, subcutaneously infected mice
# Design: species or system BALB/c mice
# Experimental: Female BALB/c mice (8-week old; n = 10) were purchased from orientbio (Gyeonggido, Republic of Korea) and fed under standardized environmental conditions for 1 week to be used to estimate time-dependent mouse survival rates. After inducing neutropenia by intraperitoneal injection of cyclophosphamide (150 mg/kg; Sigma), MDR S. aureus (KCCM 40510), MDR A. baumannii (colistin-resistant strain) or MDR K. pneumonia (colistin-resistant strain, NCCP 16125) was diluted in PBS and subcutaneously injected into mice (S. aureus, 1.5 × 10^8 CFU/ml; A. baumannii, 1 × 10^8 CFU/ml; K. pneumonia, 1 × 10^9 CFU/ml). After bacterial infection, 100 μl of WCopW43 peptide dissolved in distilled water (10 mg/ml) were injected (50 mg/kg) into each infected site, and survival was monitored every 12 h for 7 days. For A. baumannii infection, mice were intraperitoneally injected with mucin ([…], 1% in PBS, 300 μl) to suppress macrophages, and A. baumannii cells were incubated with mucin (1% in PBS) for 3 h before subcutaneous injection of 2 × 10^8 CFU/ml (0.2% mucin in PBS)[71]–[74]. Survival rates were calculated using the formula: 100% × (number of surviving mice/ten mice). One day after WCopW43 (50 mg/kg) injection, four mice were randomly selected and sacrificed by CO2 inhalation. […] Homogenized samples were spread onto MH agar plates, and CFU values were determined after incubation overnight at 37 °C.
smiles,measurement,setting,value
CC[C@@H](C)[C@@H](NC(=O)[C@@H](Cc1c[nH]c2ccccc12)NC(=O)[C@@H](CCCNC(=N)N)NC(=O)[C@@H](CCCNC(=N)N)NC(=O)[C@H](N)CCCNC(=N)N)C(=O)N[C@H](Cc1c[nH]c2ccccc12)C(=O)N[C@@H](C(=O)N[C@@H](C(=O)N[C@H](Cc1c[nH]c2ccccc12)C(=O)N[C@H](CCCCN)C(N)=O)[C@H](C)CC)C(C)C [WCopW43] (H-[dR][dR][dR][dW][dI][dW][dV][dI][dW][dK]-NH2),Decrease of bacterial burden (CFU),"WCopW43 50 mg/kg s.c. 1 h after infection, tissue CFU one day after infection, vs PBS",~ 90%
same,Survival compared with PBS-injected mice,"WCopW43 50 mg/kg s.c., neutropenic BALB/c mice, n = 10, 7 days",survived longer
